Conditions in all cases: at 10 µM
Assay [1] concerns the target Interferon-induced, double-stranded RNA-activated protein kinase (Homo sapiens) (UniProt P19525). The experiment in a line: Selectivity interaction (KinomeScan (DiscoverX)) EUB0000607a EIF2AK2.
Assay [2] addresses Phosphatidylinositol 4-phosphate 5-kinase type-1 gamma (Homo sapiens) (UniProt O60331). The experiment in a line: Selectivity interaction (KinomeScan (DiscoverX)) EUB0000655a PIP5K1C.
Assay [3] concerns the target T1, Serine/threonine-protein kinase STK11 (Homo sapiens) (UniProt Q15831).
T1 sequence (whole entry): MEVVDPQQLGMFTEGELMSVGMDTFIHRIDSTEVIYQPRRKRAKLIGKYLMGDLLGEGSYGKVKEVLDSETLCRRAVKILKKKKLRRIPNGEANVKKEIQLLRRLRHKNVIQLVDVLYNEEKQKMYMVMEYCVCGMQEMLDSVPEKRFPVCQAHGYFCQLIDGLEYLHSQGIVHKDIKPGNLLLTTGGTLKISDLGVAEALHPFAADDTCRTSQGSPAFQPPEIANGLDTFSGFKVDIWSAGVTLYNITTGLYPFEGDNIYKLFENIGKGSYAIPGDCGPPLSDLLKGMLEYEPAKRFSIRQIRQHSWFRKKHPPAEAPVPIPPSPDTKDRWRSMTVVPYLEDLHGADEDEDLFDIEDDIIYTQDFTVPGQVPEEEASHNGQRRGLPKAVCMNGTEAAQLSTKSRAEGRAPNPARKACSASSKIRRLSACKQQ
As to the kind of experiment: Selectivity interaction (KinomeScan (DiscoverX)) EUB0000092b STK11.

Assay [4] concerns Receptor-type tyrosine-protein kinase FLT3 (Homo sapiens), P36888 [UNDEFINED MUTATION]. As to the kind of experiment: (§1) Selectivity interaction (KinomeScan (DiscoverX)) EUB0000092b FLT3.
The subject of assay [5] is T2, Receptor-type tyrosine-protein kinase FLT3 (Homo sapiens), P36888 [K663Q].
T2 sequence (whole entry): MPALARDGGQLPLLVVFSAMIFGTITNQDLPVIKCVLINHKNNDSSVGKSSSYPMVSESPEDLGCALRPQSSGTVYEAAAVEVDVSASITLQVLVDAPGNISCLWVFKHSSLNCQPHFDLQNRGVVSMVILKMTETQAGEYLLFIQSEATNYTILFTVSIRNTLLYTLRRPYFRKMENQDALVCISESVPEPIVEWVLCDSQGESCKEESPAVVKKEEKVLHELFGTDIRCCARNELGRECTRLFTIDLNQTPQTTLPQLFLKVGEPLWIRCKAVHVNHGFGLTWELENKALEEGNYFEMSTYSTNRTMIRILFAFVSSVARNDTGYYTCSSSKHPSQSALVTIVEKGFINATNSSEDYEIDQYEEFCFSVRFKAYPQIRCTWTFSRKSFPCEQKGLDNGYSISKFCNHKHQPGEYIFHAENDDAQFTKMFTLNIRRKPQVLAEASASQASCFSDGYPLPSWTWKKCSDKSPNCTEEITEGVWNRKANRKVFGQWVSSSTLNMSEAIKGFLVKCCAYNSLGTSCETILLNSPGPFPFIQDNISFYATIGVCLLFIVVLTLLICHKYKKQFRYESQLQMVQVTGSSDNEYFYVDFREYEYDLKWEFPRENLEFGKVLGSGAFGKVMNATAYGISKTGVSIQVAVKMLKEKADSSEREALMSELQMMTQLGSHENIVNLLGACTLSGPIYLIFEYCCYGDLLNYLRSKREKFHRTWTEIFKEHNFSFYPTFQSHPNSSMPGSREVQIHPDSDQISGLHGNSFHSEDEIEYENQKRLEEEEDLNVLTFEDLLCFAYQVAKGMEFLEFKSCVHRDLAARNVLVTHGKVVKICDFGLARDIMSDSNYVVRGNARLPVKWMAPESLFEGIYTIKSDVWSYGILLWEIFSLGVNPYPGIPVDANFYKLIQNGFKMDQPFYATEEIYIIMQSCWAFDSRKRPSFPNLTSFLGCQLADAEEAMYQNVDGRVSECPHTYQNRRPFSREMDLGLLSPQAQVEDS
The assay is described as §1.

Assay [6] relates to T3, Receptor-type tyrosine-protein kinase FLT3 (Homo sapiens), P36888 [N841I].
T3 sequence (whole entry): T2 sequence (whole entry) with Q663K, N841I
The description is as §1.

In assay [7] the target is Receptor-type tyrosine-protein kinase FLT3 (Homo sapiens) (UniProt P36888). The assay is described as §1.

Substitutions are numbered along the chain they refer to.

Sequence of Interferon-induced, double-stranded RNA-activated protein kinase (Homo sapiens) (P19525 whole entry): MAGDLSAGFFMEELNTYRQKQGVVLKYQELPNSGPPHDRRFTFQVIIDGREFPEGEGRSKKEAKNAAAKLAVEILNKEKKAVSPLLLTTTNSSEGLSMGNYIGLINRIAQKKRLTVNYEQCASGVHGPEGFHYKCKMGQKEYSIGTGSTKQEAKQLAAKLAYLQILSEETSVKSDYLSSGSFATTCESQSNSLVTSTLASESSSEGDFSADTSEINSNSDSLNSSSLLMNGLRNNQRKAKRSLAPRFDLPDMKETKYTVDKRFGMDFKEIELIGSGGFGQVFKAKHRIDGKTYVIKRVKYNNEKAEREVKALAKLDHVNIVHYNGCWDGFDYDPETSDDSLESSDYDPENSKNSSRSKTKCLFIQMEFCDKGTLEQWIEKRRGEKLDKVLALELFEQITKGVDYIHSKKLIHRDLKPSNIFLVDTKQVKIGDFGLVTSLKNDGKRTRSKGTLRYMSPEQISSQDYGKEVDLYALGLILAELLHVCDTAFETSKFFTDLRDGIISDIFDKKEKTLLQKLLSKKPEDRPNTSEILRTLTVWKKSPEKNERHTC
Sequence of Phosphatidylinositol 4-phosphate 5-kinase type-1 gamma (Homo sapiens) (O60331 whole entry): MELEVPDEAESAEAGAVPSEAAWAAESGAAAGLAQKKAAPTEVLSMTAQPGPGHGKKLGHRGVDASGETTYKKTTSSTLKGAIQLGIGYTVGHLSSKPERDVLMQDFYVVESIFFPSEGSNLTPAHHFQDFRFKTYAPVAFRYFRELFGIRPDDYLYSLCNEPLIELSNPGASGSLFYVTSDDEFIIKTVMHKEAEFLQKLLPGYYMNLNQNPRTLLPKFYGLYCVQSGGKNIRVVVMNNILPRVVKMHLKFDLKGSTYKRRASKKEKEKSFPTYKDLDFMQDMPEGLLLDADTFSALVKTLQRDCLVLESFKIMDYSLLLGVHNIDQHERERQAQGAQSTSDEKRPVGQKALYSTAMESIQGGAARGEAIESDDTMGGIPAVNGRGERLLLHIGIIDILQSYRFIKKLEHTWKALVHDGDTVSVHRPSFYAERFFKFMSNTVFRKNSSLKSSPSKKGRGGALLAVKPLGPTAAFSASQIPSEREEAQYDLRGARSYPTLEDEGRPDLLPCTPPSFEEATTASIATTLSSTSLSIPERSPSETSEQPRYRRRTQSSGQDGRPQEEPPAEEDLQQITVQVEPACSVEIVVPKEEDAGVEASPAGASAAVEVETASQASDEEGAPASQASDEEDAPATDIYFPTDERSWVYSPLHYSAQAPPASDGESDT

Turning to `CNC(=O)Nc1ccc(-c2nc(N3CC4CCC(C3)O4)c3cnn(C4CCC5(CC4)OCCO5)c3n2)cc1`, the % of control in assay [1] turned out to be 100%.

In assay [2], `CN(C)CCOc1ccc(-c2nc(-c3ccncc3)c(-c3ccc4c(c3)CC/C4=N\O)[nH]2)cc1` yielded a % of control of 52%.

In the case of `CCC(=O)N1CCN(c2ccc(-n3c(=O)ccc4cnc5ccc(-c6cnc7ccccc7c6)cc5c43)cc2C(F)(F)F)CC1`, the % of control in assay [3] amounted to 100%; in assay [4], 29%; in assay [5], 23%; in assay [6] it was 8.8%; in assay [7], 16%.

The values are drawn from ChEMBL document CHEMBL5465560, “Selectivity Literature for EUbOPEN Chemogenomic Library” (2024).
